Like-named read-outs stand apart in the source and are kept apart here.
What was measured:
[1] = test system: ovulation in four-day cyclic rats; experiment: Anti-ovulatory effect in four-day cyclic rats, oral twice daily for four days, ova per oviduct counted; format: in vivo, rat; conditions: for ED50: Rattus norvegicus, po, 96 h, four-day cyclic rats; for rats with ovulation inhibited: Days 1-4, 8 rats per group
Procedure: Vaginal smears from female rats were obtained daily for two weeks prior to the start of treatment to identify four-day cycling rats. All treatments were administered orally twice daily at approximately 6:30 am and 4:30 pm for four consecutive days (Days 1-4), starting on the day of estrus. One day after the final dose (Day 5), the rats were euthanized by CO2 asphyxiation at approximately 1 pm, and the number of ova per oviduct was counted by visualization under a dissecting microscope and recorded. In one study, animals (8 per group) were treated with E4 (0.03; 0.1; 0.3; 1.0 or 3.0 mg/kg) or ethinylestradiol (EE) (0.0003; 0.001; 0.003, 0.01 or 0.03 mg/kg). The control group was given the vehicle only. In another study, the antiovulatory activity of E4 was evaluated relative to that of estradiol (E2). Animals (8 per group) were treated with E4, E2 or vehicle (control group).

[2] = Pharmacokinetics of a single oral dose in healthy postmenopausal women; format: in vivo, human; conditions: for half-life: female, human, plasma, po, postmenopausal women
Procedure: (§1) In the present example the safety, tolerability, pharmacokinetics and pharmacodynamics of a single escalating dose of E4 (0.1, 1, 10 and 100 mg) was evaluated in healthy postmenopausal women.
(§2) A double-blind, randomized, placebo-controlled, single rising dose study (0.1, 1, 10 and 100 mg of E4) was performed in healthy postmenopausal women. 32 healthy postmenopausal female volunteers between 53 and 69 years of age were enrolled. Menopause was defined as ≧12 months amenorrhea or 6 months amenorrhea with serum FSH levels≧40 IU/l and serum E2<73 pmol/l. […] A total of 8 subjects were assigned to each dose group; six subjects received active treatment and two subjects received placebo.
Plasma concentration profiles could not be determined in subjects of the 0.1 mg group.

[3] = test system: healthy postmenopausal women; experiment: Safety and tolerability of a single rising oral dose in healthy postmenopausal women; format: in vivo, human; conditions: for safety and tolerability after single administration: dose up to 100 mg, humans
Procedure: as §1, §2

[4] = test system: ovulation and pregnancy in fertile female rabbits; experiment: Prevention of pregnancy in rabbits, twice daily dosing for 14 days starting four days before mating; format: in vivo, rabbit
Procedure: Eighteen proven fertile female rabbits, 3 per group were dosed twice daily at approximately 12 hour intervals for 14 days starting four days before mating: Group 1: vehicle control (ASV: 0.9% sodium chloride, 0.4% polysorbate 80, 0.5% carboxymethylcellulose and 0.9% benzyl alcohol in distilled or deionised water, 1 ml/kg), Group 2: 0.01 mg/kg E4 in ASV, 1 ml/kg, Group 3: 0.03 mg/kg E4 in ASV, 1 ml/kg, Group 4: 0.1 mg/kg E4 in ASV, 1 ml/kg, Group 5: 0.3 mg/kg E4 in ASV, 1 ml/kg and Group 6: 1.0 mg/kg E4 in ASV, 1 ml/kg. Doses were determined by body weights taken the first day of dosing and were adjusted according to weights obtained one week later. Each female rabbit was bred with two proven fertile male rabbits after four days of dosing. The females were necropsied ten days later and the number of pregnancies were determined.

[5] = test system: plasma LH levels; experiment: Pharmacodynamics: plasma LH levels after a single oral dose in postmenopausal women; format: in vivo, human
Procedure: as §1, §2
The maximum mean suppression was 48% at 4 hours after dosing. A second LH trough of 45% is seen at 12 hours after dosing, synchronous with the mean E4 levels.

[6] = test system: adult female cynomolgus monkeys; experiment: Maximum tolerated dose (MTD) study in adult female cynomolgus monkeys; format: in vivo
Procedure: A maximum tolerated dose (MTD) study was performed in adult female cynomolgus monkeys.
Three control animals were treated orally with vehicle, and four other animals were treated orally with E4 as a suspension in vehicle at single increasing doses of 1, 10, 100 or 1000 mg/kg on days 1, 3, 6 and 14 respectively.

[7] = test system: FSH levels; experiment: Pharmacodynamics: FSH levels after a single oral dose in postmenopausal women; format: in vivo, human; conditions: 100 mg dose group
Procedure: as §1, §2

[8] = test system: mated female Wistar rats; experiment: Effects of E4 on the pregnancy of the Wistar rat, oral gavage Day 6 to 17 of gestation; format: in vivo; conditions: for females observed to be hunched towards the end of gestation: seven rats per group
Procedure: In one study, groups of seven mated female rats were given E4 orally, by gavage, at dose levels of 30, 60 or 90 mg/kg/day from Day 6 to 17 of gestation inclusive. A similar group of seven rats was given the vehicle, 0.5% w/v carboxymethylcellulose, over the same period to act as controls. On Day 20 of gestation, the females were examined.
In another study, using the same protocol as the study above, groups of seven mated female rats were given E4 at dose levels of 0.1, 0.3, 1, 3 and 10 mg/kg/day or vehicle (controls).

[9] = test system: estrogen-sensitive parameters related to hepatic and bone metabolism; experiment: Pharmacodynamics: estrogen-sensitive hepatic and bone metabolism parameters and endometrial stimulation in postmenopausal women; format: in vivo, human; conditions: single oral dose
Procedure: as §1, §2
Some fast reacting, estrogen-sensitive parameters related to hepatic and bone metabolism were determined in the 100-mg dose group only. […] Interpretation of the pharmacodynamic data must be made with care taking into consideration the small number of subjects and the single dose administration.

[10] = another study, E4 vs E2, p.o., read-out: antiovulatory ED50
[11] = 0.01 mg/kg twice daily, one female failed to breed
[12] = 0.03 mg/kg twice daily, 3 animals per group
[13] = 1.0 mg/kg twice daily, 3 animals per group
[14] = single increasing oral doses 1-1000 mg/kg
[15] = 30, 60 or 90 mg/kg/day oral gavage, Day 6 to 17 of gestation
[16] = all dose groups 30, 60, 90 mg/kg/day

Compound: C[C@]12CC[C@@H]3c4ccc(O)cc4CC[C@H]3[C@@H]1CC[C@@H]2O [E2, estradiol, reference compound]
- ED50 [1, 10]: 0.03 to 0.1 mg/kg

Compound: C[C@]12CC[C@@H]3c4ccc(O)cc4CC[C@H]3[C@@H]1[C@@H](O)[C@@H](O)[C@@H]2O [E4, 1,3,5(10)-estratrien-3, 15α, 16α, 17β-tetrol]
- oral bioabsorption ([2]; dose range tested): high and dose-proportional
- half-life ([2]; single oral dose, read-out: terminal half life (converted)): 28 h
- half-life ([2]; single oral dose, read-out: terminal half life, ranges): 18 to 60 h
- Cmax dose proportionality ([2]; range from 1 to 100 mg oral): proportional
- AUC0-∞ dose proportionality ([2]; range from 10 to 100 mg oral): proportional to the oral dose
- absorption ([2]; single oral dose): extremely fast
- terminal half life and fractional clearance, effect of dose level ([2]; single oral dose): not affected by dose level
- inter-subject variability of pharmacokinetic data ([2]; single oral dose, 1-100 mg): very low
- rats with ovulation inhibited ([1]; 0.03 mg/kg p.o. twice daily): did not inhibit ovulation
- rats with ovulation inhibited ([1]; 0.1 mg/kg p.o. twice daily): 2 of 8
- rats with ovulation inhibited ([1]; 0.3 mg/kg p.o. twice daily): 5 of 8
- rats with ovulation inhibited ([1]; 1.0 mg/kg p.o. twice daily): 7 of 8
- rats with ovulation inhibited ([1]; 3.0 mg/kg p.o. twice daily): 8 of 8
- ED50 [1, 10]: 0.204 mg/kg
- Somnolence, E = number of adverse events ([3]; 0.1 mg single oral dose, N = 6): 1
- Somnolence, n = number of subjects with adverse events ([3]; 0.1 mg single oral dose, N = 6): 1
- Somnolence, percentage of subjects with adverse events ([3]; 0.1 mg single oral dose, N = 6): 16.7%
- Somnolence, E = number of adverse events ([3]; 1 mg single oral dose, N = 6): 1
- Somnolence, n = number of subjects with adverse events ([3]; 1 mg single oral dose, N = 6): 1
- Somnolence, percentage of subjects with adverse events ([3]; 1 mg single oral dose, N = 6): 16.7%
- number of AEs ([3]; 10 mg group): just one AE
- Myalgia, E = number of adverse events ([3]; 10 mg single oral dose, N = 6): 1
- Myalgia, n = number of subjects with adverse events ([3]; 10 mg single oral dose, N = 6): 1
- Myalgia, percentage of subjects with adverse events ([3]; 10 mg single oral dose, N = 6): 16.7%
- number and nature of AEs versus placebo ([3]; 0.1, 1.0 and 10 mg): similar
- number of AEs (all AEs and related AEs) ([3]; 100 mg): highest
- Diarrhoea NOS, E = number of adverse events ([3]; 100 mg single oral dose, N = 6): 2
- Diarrhoea NOS, n = number of subjects with adverse events ([3]; 100 mg single oral dose, N = 6): 2
- Diarrhoea NOS, percentage of subjects with adverse events ([3]; 100 mg single oral dose, N = 6): 33.3%
- Myalgia, E = number of adverse events ([3]; 100 mg single oral dose, N = 6): 2
- Myalgia, n = number of subjects with adverse events ([3]; 100 mg single oral dose, N = 6): 2
- Myalgia, percentage of subjects with adverse events ([3]; 100 mg single oral dose, N = 6): 33.3%
- Somnolence, E = number of adverse events ([3]; 100 mg single oral dose, N = 6): 2
- Somnolence, n = number of subjects with adverse events ([3]; 100 mg single oral dose, N = 6): 2
- Somnolence, percentage of subjects with adverse events ([3]; 100 mg single oral dose, N = 6): 33.3%
- safety and tolerability after single administration [3]: In conclusion, the results of this study showed that E4 after single administration at a dose up to 100 mg is safe and well tolerated.
- safety and tolerability after single administration ([3]; listed as estetrol): safe and well tolerated
- notable adverse event ([3]; one subject of the 100 mg group, not serious, mild, probably related): allergic reaction (urticaria)
- severe or serious adverse events ([3]; single doses 0.1, 1, 10 and 100 mg): No severe or serious adverse events
- changes in ECGs, laboratory tests or vital signs ([3]; single doses 0.1-100 mg): no notable changes
- dosages that caused complete prevention of pregnancy [4]: > 0.03 mg/kg b.i.d.
- N corpora lutea, total number [4, 11]: 22
- N pregnancies, total number [4, 11]: 22
- N corpora lutea, total number [4, 12]: 22
- N pregnancies, total number [4, 12]: 21
- N corpora lutea, total number ([4]; 0.1 mg/kg twice daily, 3 animals per group): 20
- N corpora lutea, total number ([4]; 0.3 mg/kg twice daily, 3 animals per group): 20
- N corpora lutea, total number [4, 13]: 3
- N pregnancies, total number [4, 13]: 0
- oral doses that induce inhibition of ovulation ([4]; oral): > 0.3 mg/kg b.i.d.
- maximum mean suppression of LH ([5]; 4 hours after dosing, 100 mg group shown in FIG. 2): 48%
- second LH trough ([5]; 12 hours after dosing, 100 mg group shown in FIG. 2): 45%
- inhibition of plasma LH levels ([5]; up to 48 hours after dosing): clear dose-dependent inhibition
- animals with decreased levels of inorganic phosphorus ([6]; 1 mg/kg, the day after dosing): 3 of 4
- adverse clinical sign ([6]; 1000 mg/kg oral, approximately 12 h after dosing): emesis in one E4-treated animal
- animals with decreased levels of inorganic phosphorus ([6]; after the 100 mg/kg dose): all E4-treated animals
- animals with decreased levels of inorganic phosphorus ([6]; after the 1000 mg/kg dose): all E4-treated animals
- tolerability of single oral treatment ([6]; doses up to 1000 mg/kg): well tolerated
- effects on body weight or haematological parameters [6, 14]: No effects
- gross necropsy [6, 14]: did not reveal any unusual findings
- liver parameters (AST, ALT) [6, 14]: no apparent test item- or dose-related findings
- maximum suppression of FSH ([7]; 48 hrs after dosing): 41%
- inhibition of FSH levels ([7]; up to 168 hours (1 week) after dosing): profound and sustained inhibition
- females observed to be hunched towards the end of gestation ([8]; 3 mg/kg/day): one female
- mean body weight during treatment period ([8]; 10 mg/kg/day): overall loss in mean body weight
- mean food intake ([8]; 10 mg/kg/day): reduced mean food intake
- females observed to be hunched towards the end of gestation ([8]; 10 mg/kg/day): Three females
- mean body weight gains over treatment period ([8]; 0.1, 0.3, 1 and 3 mg/kg/day): less than the controls
- mean gravid uterus weight ([8]; 0.3, 1 and 3 mg/kg/day): reduction in mean gravid uterus weight
- mean food intake over treatment period ([8]; 1 and 3 mg/kg/day): slightly lower than the control
- clinical observations or necropsy findings related to treatment [8, 15]: no relevant unexpected clinical observations or necropsy findings
- deaths [8, 15]: no deaths
- group mean body weight over treatment period [8, 16]: Group mean body weight loss
- mean food intake over treatment period [8, 16]: marked reduction in mean food intake
- deaths ([8]; another study, 0.1, 0.3, 1, 3 and 10 mg/kg/day): no deaths
- maternal toxicity ([8]; dose level below 3 mg/kg/day): only slight maternal toxicity
- endometrial stimulation (withdrawal bleeding after progestogen post treatment) [9]: No significant endometrial stimulation

Compound: C#C[C@]1(O)CC[C@H]2[C@@H]3CCc4cc(O)ccc4[C@H]3CC[C@@]21C [EE, ethinylestradiol, reference compound]
- ED50 ([1]; study E4 vs EE, p.o. twice daily, read-out: calculated antiovulatory ED50): 0.01 mg/kg

Source: patent US9579329B2, “Use of estetrol as emergency contraceptive” (Estetra S.P.R.L., priority 2011, dated 2017)
